Laboratory results: ChEMBL document CHEMBL1136518, “Potent, selective inhibitors of protein tyrosine phosphatase 1B” (Bioorg Med Chem Lett, 2003)

Legend:
[1] = target: T1, Tyrosine-protein phosphatase non-receptor type 1 (Homo sapiens, UniProt P18031); assay: Inhibitory activity tested against Protein-tyrosine phosphatase 1B (PTP1B)
T1 sequence (P18031 whole entry): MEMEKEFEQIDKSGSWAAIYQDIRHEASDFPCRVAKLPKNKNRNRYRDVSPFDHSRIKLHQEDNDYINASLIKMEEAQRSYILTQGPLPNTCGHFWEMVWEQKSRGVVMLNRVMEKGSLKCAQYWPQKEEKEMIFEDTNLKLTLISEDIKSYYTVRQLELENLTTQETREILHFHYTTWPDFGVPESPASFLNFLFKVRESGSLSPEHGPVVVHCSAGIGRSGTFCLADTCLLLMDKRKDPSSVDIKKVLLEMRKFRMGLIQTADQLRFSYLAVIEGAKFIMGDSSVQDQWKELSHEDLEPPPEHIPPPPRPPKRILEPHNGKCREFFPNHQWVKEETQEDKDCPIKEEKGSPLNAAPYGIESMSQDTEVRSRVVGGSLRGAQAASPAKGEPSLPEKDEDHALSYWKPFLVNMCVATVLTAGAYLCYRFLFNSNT

[2] = target: T2, Tyrosine-protein phosphatase non-receptor type 2 (Homo sapiens, UniProt P17706); assay: Inhibitory activity tested against T-cell Protein tyrosine phosphatase 2 (TCPTP)
T2 sequence (P17706 whole entry): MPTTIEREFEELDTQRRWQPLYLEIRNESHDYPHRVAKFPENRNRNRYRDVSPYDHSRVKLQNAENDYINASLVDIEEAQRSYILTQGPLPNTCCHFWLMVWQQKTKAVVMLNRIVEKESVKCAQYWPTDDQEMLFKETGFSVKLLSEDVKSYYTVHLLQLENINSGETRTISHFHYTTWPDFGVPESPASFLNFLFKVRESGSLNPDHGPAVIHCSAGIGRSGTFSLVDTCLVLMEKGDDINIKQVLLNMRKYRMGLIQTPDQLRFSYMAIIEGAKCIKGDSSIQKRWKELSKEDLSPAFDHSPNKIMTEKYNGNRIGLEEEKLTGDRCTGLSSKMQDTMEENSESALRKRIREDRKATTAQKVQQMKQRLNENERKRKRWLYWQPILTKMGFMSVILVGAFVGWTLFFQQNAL

[3] = Inhibition of LAR (leukocyte common antigen-related) phosphatase
[4] = target: T3, M-phase inducer phosphatase 3 (Homo sapiens, UniProt P30307); assay: Inhibition of Cell division cycle 25 (Cdc25) phosphatase
T3 sequence (P30307 whole entry): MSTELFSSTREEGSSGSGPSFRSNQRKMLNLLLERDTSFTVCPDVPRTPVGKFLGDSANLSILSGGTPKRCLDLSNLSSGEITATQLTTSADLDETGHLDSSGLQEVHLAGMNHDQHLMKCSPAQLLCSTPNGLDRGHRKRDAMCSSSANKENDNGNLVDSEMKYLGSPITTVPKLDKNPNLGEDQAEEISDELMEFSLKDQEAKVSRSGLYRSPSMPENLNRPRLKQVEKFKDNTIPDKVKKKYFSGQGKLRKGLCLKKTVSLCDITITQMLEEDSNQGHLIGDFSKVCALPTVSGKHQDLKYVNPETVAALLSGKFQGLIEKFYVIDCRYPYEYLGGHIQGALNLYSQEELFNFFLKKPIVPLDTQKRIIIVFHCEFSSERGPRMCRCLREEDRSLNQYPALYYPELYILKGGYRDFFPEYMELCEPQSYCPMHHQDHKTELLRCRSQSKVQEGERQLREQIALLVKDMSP

[5] = target: T4, Receptor-type tyrosine-protein phosphatase C (Homo sapiens, UniProt P08575); assay: Inhibition of common leukocyte antigen CD45 phosphatase
T4 sequence (P08575 whole entry): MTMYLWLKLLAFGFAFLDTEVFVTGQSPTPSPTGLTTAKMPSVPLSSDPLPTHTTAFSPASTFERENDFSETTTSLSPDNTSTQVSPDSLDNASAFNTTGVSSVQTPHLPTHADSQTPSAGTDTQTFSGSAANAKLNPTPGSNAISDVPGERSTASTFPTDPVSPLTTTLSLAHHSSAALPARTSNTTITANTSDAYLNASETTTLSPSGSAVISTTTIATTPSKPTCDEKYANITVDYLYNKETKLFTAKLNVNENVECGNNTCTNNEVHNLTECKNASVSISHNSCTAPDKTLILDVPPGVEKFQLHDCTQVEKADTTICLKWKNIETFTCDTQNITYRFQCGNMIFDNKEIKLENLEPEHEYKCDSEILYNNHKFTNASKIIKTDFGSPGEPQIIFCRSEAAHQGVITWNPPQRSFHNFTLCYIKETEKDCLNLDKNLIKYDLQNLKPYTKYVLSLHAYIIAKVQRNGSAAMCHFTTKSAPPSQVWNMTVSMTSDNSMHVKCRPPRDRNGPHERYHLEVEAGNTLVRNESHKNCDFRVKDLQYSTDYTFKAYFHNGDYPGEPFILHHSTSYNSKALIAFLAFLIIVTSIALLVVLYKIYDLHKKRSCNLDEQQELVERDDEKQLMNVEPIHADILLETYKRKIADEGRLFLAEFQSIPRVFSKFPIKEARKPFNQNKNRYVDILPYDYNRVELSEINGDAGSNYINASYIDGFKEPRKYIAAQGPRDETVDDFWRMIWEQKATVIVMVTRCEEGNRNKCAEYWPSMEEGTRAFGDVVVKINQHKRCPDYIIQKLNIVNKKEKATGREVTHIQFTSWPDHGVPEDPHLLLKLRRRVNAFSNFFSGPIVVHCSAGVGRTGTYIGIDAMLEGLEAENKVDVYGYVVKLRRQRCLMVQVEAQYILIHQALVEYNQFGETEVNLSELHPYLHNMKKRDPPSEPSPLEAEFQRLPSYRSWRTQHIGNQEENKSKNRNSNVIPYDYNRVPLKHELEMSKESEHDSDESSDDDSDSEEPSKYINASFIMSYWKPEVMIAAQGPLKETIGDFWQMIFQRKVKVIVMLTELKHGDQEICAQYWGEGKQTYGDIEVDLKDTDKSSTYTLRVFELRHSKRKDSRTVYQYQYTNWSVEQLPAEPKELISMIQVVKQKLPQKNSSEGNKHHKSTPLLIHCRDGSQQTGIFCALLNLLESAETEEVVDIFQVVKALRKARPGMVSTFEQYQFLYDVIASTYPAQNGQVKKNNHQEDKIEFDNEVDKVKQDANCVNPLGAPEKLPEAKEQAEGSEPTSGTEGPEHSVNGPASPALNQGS

[6] = Inhibition of SHP-2 phosphatase

SMILES	Ki [1]	Ki [2]	further results
CCCC[C@H](NC(=O)CCCCNC(=O)C(Cc1ccc(N(C(=O)C(=O)O)c2ccccc2C(=O)O)c(CC)c1)NC(C)=O)C(=O)O (stereo not given in full)	120 nM	240 nM	
CCc1cc(CC(NC(C)=O)C(=O)NCCCCC(=O)N[C@@H](CCCCN)C(=O)O)ccc1N(C(=O)C(=O)O)c1ccccc1C(=O)O (stereo not given in full)	710 nM	820 nM	
CCc1cc(CC(NC(C)=O)C(=O)NCCCCC(=O)N[C@@H](CCS(C)(=O)=O)C(=O)O)ccc1N(C(=O)C(=O)O)c1ccccc1C(=O)O (stereo not given in full)	470 nM	370 nM	
CCc1cc(CC(NC(C)=O)C(=O)NCCCCC(=O)N[C@H](C(=O)O)C2CCCCC2)ccc1N(C(=O)C(=O)O)c1ccccc1C(=O)O (stereo not given in full)	250 nM	290 nM	
CCc1cc(CC(NC(C)=O)C(=O)NCCCCC(=O)NC(Cc2ccccc2)C(N)=O)ccc1N(C(=O)C(=O)O)c1ccccc1C(=O)O (stereo not given)	1300 nM	700 nM	
CCc1cc(CC(NC(C)=O)C(=O)NCCCCC(=O)NCCc2ccccc2)ccc1N(C(=O)C(=O)O)c1ccccc1C(=O)O (stereo not given)	3400 nM	1400 nM	
CCc1cc(CC(NC(C)=O)C(=O)NCCCCC(=O)N[C@H](C(=O)O)C(C)CC)ccc1N(C(=O)C(=O)O)c1ccccc1C(=O)O (stereo not given in full)	430 nM	400 nM	
CCc1cc(CC(NC(C)=O)C(=O)NCCCCC(=O)O)ccc1N(C(=O)C(=O)O)c1ccccc1C(=O)O (stereo not given)	2500 nM	2200 nM	
CCc1cc(CC(NC(C)=O)C(=O)NCCCCC(=O)N[C@@H](CCC(N)=O)C(=O)O)ccc1N(C(=O)C(=O)O)c1ccccc1C(=O)O (stereo not given in full)	330 nM	270 nM	
CCc1cc(CC(NC(C)=O)C(=O)NCCCCC(=O)N[C@@H](CCSC)C(=O)O)ccc1N(C(=O)C(=O)O)c1ccccc1C(=O)O (stereo not given in full)			Ki [3]: 8750 nM; Ki [4]: > 300000 nM; Ki [5]: > 300000 nM; Ki [6]: 73200 nM
CCc1cc(CC(NC(C)=O)C(=O)NCc2ccc([N+](=O)[O-])cc2)ccc1N(C(=O)C(=O)O)c1ccccc1C(=O)O (stereo not given)	540 nM	450 nM	
CCc1cc(CC(NC(C)=O)C(=O)NCc2ccc(OC)cc2)ccc1N(C(=O)C(=O)O)c1ccccc1C(=O)O (stereo not given)	4700 nM	3600 nM	
CCc1cc(CC(NC(C)=O)C(=O)NCCCCC(=O)N[C@@H](Cc2ccccc2)C(=O)O)ccc1N(C(=O)C(=O)O)c1ccccc1C(=O)O (stereo not given in full)	140 nM	160 nM	
CCc1cc(CC(NC(C)=O)C(=O)NCc2ccc(Cl)cc2)ccc1N(C(=O)C(=O)O)c1ccccc1C(=O)O (stereo not given)	1200 nM	1500 nM	
CCSCC[C@H](NC(=O)CCCCNC(=O)C(Cc1ccc(N(C(=O)C(=O)O)c2ccccc2C(=O)O)c(CC)c1)NC(C)=O)C(=O)O (stereo not given in full)	130 nM	510 nM	
CCc1cc(CC(NC(C)=O)C(=O)NCCCCC(=O)N[C@H](CCSC)C(=O)O)ccc1N(C(=O)C(=O)O)c1ccccc1C(=O)O (stereo not given in full)	1700 nM		
CCc1cc(CC(NC(C)=O)C(=O)NCCCCC(=O)N[C@@H](CCSC)C(=O)OC)ccc1N(C(=O)C(=O)O)c1ccccc1C(=O)O (stereo not given in full)	540 nM	670 nM	
